ChEMBL document CHEMBL3286339, “Synthesis and in vivo SAR study of indolin-2-one-based multi-targeted inhibitors as potential anticancer agents” (Eur J Med Chem, 2014)
Active and inactive are the calls of the source. The calls are words filed in the database; no cut-off is given here.

Legend:
Mus musculus [1] = assay: Toxicity in BALB/c nude mouse xenografted with human HT-29 cells assessed as severe weight loss at 80 mg/kg/day administered qd; format: organism-based; settings: in vivo
Aorta = assay: Antiangiogenic activity in Sprague-Dawley rat aortic ring at 0.2 ug/ml after 6 days by inverted microscopic analysis; format: functional, tissue-based
[2] = Antiproliferative activity against human LO2 cells after 72 hrs by MTT assay; format: cell-based; settings: L02, 72 h
Mus musculus [3] = assay: Toxicity in BALB/c nude mouse xenografted with human HT-29 cells assessed as change in body weight at 80 mg/kg/day administered qd relative to control; format: organism-based; settings: in vivo
[4] = target: Voltage-gated inwardly rectifying potassium channel KCNH2 (Homo sapiens, UniProt Q12809); assay: Inhibition of human ERG
Voltage-gated inwardly rectifying potassium channel KCNH2, sequence (Q12809 whole entry): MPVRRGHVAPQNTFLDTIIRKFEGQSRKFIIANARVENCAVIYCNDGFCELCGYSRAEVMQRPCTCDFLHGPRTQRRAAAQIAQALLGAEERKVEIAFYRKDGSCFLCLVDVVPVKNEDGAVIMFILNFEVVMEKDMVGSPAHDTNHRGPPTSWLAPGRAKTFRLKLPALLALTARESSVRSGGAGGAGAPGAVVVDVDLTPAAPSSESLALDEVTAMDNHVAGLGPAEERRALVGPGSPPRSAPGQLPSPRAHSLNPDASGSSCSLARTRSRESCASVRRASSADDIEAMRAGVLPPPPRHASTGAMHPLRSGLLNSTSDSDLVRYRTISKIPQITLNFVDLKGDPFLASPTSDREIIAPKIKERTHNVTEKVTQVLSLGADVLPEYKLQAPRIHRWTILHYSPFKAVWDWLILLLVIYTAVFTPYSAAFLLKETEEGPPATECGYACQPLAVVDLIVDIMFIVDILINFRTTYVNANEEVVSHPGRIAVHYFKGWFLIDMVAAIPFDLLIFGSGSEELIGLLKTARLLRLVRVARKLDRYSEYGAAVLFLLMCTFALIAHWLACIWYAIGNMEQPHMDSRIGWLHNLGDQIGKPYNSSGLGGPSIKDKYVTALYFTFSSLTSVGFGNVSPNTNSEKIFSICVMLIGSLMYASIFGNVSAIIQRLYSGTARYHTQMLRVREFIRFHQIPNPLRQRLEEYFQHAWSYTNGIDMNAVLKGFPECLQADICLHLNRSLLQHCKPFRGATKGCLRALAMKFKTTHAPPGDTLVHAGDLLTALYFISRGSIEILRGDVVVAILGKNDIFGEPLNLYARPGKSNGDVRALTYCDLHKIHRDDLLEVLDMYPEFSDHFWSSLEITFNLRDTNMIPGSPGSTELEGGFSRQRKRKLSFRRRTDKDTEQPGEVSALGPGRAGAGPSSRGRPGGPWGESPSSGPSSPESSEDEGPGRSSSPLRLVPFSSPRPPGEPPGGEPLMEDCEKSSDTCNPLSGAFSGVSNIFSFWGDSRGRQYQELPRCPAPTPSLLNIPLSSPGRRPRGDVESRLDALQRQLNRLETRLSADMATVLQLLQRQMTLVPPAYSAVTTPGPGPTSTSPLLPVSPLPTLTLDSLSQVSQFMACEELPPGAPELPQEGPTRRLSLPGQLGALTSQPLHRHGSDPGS

[5] = target: Vascular endothelial growth factor receptor 1 (Homo sapiens, UniProt P17948); assay: Binding affinity to VEGFR1 (unknown origin)
[6] = target: Tyrosine-protein kinase ABL2 (Homo sapiens, UniProt P42684); assay: Binding affinity to ARG (unknown origin)
Focal adhesion kinase 1 = Focal adhesion kinase 1 (Homo sapiens, UniProt Q05397); assay: Binding affinity to FAK (unknown origin)
[7] = target: Tyrosine-protein kinase Lck (Homo sapiens, UniProt P06239); assay: Binding affinity to LCK (unknown origin)
Tyrosine-protein kinase Lck, sequence (P06239 whole entry): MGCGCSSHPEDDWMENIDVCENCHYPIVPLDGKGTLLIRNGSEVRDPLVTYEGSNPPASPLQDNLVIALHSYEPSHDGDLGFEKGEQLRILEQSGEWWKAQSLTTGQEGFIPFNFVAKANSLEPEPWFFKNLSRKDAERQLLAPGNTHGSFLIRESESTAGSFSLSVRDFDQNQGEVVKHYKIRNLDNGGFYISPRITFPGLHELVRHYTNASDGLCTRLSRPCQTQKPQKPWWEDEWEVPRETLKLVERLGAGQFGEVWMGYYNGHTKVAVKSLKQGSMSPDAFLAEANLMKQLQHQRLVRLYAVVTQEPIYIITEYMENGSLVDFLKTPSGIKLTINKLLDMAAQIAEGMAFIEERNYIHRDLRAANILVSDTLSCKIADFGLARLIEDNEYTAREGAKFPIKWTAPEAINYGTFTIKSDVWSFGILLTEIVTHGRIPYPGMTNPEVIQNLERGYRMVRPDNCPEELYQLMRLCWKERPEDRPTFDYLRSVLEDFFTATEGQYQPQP

[8] = target: Platelet-derived growth factor receptor beta (Homo sapiens, UniProt P09619); assay: Inhibition of PDGFR-beta (unknown origin) at 1 uM relative to control
Platelet-derived growth factor receptor beta, sequence (P09619 whole entry): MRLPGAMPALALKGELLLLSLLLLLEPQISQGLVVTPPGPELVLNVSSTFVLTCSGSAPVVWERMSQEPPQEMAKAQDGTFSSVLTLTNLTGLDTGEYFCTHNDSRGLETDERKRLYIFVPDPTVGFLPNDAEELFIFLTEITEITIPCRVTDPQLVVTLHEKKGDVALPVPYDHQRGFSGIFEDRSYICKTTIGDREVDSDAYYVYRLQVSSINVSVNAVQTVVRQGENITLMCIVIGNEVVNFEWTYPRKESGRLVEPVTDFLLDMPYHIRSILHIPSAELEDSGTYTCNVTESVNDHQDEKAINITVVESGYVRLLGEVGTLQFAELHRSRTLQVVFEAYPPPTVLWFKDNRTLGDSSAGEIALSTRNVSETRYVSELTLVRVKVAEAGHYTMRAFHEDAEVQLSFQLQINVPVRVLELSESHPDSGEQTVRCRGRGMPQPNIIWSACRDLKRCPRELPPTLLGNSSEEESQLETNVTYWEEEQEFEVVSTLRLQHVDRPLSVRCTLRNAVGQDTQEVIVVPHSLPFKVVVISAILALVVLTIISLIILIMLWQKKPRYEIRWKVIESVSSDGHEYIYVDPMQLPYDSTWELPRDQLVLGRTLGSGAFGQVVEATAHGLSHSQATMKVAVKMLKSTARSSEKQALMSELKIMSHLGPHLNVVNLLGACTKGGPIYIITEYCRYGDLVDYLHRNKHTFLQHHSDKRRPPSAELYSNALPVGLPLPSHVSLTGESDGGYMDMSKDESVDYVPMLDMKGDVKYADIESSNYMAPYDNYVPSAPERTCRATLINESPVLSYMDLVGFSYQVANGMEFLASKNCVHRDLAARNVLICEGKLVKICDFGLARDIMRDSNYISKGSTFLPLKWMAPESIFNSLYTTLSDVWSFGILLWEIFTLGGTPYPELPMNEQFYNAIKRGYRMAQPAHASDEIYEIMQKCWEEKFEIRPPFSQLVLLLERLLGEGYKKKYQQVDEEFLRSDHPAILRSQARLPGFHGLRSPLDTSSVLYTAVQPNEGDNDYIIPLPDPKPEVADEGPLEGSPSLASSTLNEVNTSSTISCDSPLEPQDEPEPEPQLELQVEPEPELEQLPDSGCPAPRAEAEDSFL

[9] = target: Serine/threonine-protein kinase Chk1 (Homo sapiens) (UniProt O14757); assay: Inhibition of CHK1 (unknown origin) at 1 uM relative to control
Serine/threonine-protein kinase Chk1 (Homo sapiens), sequence (O14757 whole entry): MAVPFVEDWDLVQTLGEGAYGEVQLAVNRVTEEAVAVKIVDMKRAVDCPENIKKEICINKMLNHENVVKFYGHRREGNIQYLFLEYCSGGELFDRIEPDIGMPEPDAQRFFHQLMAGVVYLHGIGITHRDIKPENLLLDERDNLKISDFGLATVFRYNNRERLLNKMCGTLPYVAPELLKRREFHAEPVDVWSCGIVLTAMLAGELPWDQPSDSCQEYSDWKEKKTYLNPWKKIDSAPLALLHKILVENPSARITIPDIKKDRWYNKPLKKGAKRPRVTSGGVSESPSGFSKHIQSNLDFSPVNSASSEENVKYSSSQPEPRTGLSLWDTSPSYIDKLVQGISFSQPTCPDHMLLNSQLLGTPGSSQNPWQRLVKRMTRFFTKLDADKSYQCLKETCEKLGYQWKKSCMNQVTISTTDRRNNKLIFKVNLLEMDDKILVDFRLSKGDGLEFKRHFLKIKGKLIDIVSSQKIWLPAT

[10] = target: Fibroblast growth factor receptor 1 (Homo sapiens, UniProt P11362); assay: Inhibition of FGFR1 (unknown origin) at 1 uM relative to control
TT = assay: Antiproliferative activity against human TT cells pretreated for 72 hrs followed by compound-washout measured after 72 hrs by MTT assay; format: functional, cell-based
[11] = target: Vascular endothelial growth factor receptor 3 (Homo sapiens, UniProt P35916); settings: 1 uM
Description: Inhibition of VEGFR3 (unknown origin) at 1 uM relative to control

[12] = target: Vascular endothelial growth factor receptor 2 (Homo sapiens, UniProt P35968); settings: 1 uM
Description: Inhibition of VEGFR2 (unknown origin) at 1 uM relative to control

[13] = target: ALK tyrosine kinase receptor (Homo sapiens, UniProt Q9UM73); settings: 1 uM
ALK tyrosine kinase receptor, sequence (Q9UM73 19-1620 limits assumed): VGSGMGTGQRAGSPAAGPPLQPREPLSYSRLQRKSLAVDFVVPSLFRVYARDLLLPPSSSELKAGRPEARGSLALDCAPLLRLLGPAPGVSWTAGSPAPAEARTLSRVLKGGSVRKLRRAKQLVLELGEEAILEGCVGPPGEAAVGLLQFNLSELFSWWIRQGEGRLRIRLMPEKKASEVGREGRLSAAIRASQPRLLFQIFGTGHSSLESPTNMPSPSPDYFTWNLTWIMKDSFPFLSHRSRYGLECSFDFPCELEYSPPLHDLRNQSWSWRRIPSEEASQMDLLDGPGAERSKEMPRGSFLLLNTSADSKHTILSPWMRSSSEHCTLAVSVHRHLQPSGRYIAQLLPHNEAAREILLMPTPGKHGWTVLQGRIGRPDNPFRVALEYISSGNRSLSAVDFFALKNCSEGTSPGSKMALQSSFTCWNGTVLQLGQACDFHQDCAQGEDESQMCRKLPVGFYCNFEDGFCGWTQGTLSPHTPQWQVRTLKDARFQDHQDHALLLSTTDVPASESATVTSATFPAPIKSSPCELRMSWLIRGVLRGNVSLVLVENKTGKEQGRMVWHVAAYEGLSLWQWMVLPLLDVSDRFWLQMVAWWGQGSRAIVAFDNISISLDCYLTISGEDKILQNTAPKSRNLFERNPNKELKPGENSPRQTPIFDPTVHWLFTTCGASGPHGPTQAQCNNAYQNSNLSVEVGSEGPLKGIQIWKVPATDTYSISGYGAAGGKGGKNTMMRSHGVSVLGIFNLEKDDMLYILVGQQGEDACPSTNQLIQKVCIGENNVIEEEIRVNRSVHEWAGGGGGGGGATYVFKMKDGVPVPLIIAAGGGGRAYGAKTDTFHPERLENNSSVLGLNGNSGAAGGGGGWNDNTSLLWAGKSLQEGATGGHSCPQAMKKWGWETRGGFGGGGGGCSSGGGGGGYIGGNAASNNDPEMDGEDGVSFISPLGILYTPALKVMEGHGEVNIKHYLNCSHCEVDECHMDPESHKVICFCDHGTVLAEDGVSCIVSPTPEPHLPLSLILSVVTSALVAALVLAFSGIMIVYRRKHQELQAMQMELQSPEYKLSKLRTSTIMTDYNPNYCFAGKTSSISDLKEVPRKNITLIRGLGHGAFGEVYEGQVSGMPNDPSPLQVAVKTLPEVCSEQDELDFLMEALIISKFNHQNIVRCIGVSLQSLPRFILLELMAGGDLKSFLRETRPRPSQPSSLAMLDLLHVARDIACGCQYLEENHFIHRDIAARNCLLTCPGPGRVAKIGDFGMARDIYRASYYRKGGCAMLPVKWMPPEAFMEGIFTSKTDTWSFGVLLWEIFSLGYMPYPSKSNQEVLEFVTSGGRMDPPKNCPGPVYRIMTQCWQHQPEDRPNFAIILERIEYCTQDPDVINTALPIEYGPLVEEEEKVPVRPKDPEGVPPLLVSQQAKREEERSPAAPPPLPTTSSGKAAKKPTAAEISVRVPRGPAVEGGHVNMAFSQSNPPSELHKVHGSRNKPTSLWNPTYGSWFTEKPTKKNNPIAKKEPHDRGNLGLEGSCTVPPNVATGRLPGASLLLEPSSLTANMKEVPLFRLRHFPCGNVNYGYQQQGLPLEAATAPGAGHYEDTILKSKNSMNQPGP
Description: Inhibition of ALK (unknown origin) at 1 uM relative to control

Cc1[nH]c(/C=C2\C(=O)Nc3ccc(F)cc32)c(C)c1NC(=O)CCN1CCN(C)CC1
Activity (Mus musculus [1]): Non-toxic
inhibition (Aorta): Active
IC50 [2]: 41400 nM
Activity (Mus musculus [3]): 6.2%
IC50 [4]: 18800 nM
Ki [5]: 1100 nM
Ki [6]: 180 nM
Ki (Focal adhesion kinase 1): 530 nM
Ki [7]: 2000 nM
inhibition [8]: 79%
inhibition [9]: 76%
inhibition [10]: 71%
IC50 (TT): 70 nM
inhibition [11]: 99%
inhibition [12]: 99%
inhibition [13]: 87%
